# Biological target: Serine/threonine-protein kinase PLK1 (Homo sapiens, UniProt P53350)
# Assay: potency against Plk1 PBD phosphopeptide binding – biochemical, fluorescence polarization, dose response (AID 877)
# Serine/threonine-protein kinase PLK1, sequence (P53350 whole entry): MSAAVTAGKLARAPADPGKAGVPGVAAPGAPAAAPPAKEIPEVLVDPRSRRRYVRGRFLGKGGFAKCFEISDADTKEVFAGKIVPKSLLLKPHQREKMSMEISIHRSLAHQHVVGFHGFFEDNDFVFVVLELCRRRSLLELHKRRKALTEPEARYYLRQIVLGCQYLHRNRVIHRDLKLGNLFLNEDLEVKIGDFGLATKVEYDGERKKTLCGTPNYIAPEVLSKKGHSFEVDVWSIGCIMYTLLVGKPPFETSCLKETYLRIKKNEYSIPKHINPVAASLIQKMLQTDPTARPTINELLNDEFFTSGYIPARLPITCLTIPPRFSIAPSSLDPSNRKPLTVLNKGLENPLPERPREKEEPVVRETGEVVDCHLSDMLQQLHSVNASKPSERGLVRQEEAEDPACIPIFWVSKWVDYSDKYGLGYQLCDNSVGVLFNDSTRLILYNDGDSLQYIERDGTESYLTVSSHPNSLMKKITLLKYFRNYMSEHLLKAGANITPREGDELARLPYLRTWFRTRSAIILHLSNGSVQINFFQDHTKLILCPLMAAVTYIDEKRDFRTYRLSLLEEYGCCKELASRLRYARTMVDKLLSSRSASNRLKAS
row,SMILES,IC50
1,O=NCc1cc(Br)ccc1OCC(=O)O [2-[4-bromanyl-2-(hydroxyiminomethyl)phenoxy]ethanoic acid],> 50 µM
2,"Cc1ccc(CNC(=O)c2cc3c(=O)n(C)c4ccccc4c3n2C)cc1 [1,5-dimethyl-N-[(4-methylphenyl)methyl]-4-oxidanylidene-pyrrolo[3,2-c]quinoline-2-carboxamide]",> 50 µM
3,COc1ccc(C(C)C)cc1S(=O)(=O)Nc1ccc(Cl)cn1 [MLS000071127],> 50 µM
4,"NC(=O)C1(N2CCCCC2)CCN(C(=O)NC2CCCCC2)CC1 [1-N-cyclohexyl-4-piperidin-1-ylpiperidine-1,4-dicarboxamide]",> 50 µM
5,"CCOC(=O)c1c2c(n(C)c1C)C(=O)C(=O)c1ccc(Br)cc1-2 [8-bromo-2,3-dimethyl-4,5-dioxo-1-benzo[e]indolecarboxylic acid ethyl ester]",10.4 µM
6,O=C(NC1(C(F)(F)F)NC(=O)N(CC2CCCCC2)C1=O)c1ccco1 (centres undefined) [MLS000040678],> 50 µM
7,"CC(C)Sc1nc(N2CCOCC2)c2c(c1C#N)CC(C)(C)N(C)C2 [3-(isopropylthio)-6,6,7-trimethyl-1-morpholino-5,8-dihydro-2,7-naphthyridine-4-carbonitrile]",> 50 µM
8,CCOCCCNC(=O)CCCOc1ccccc1 [MLS000088375],> 50 µM
9,CC(C)OCCCNC(=O)c1ccc(NC(=O)C2CCCO2)cc1 (centres undefined) [MLS000086701],> 50 µM
10,"Nc1cc(-c2ccc(Br)cc2)nn1S(=O)(=O)c1cccc2nsnc12 [2-(2,1,3-benzothiadiazol-4-ylsulfonyl)-5-(4-bromophenyl)-3-pyrazolamine]",> 50 µM
11,"Cc1nn(C(C)C(=O)N2CCCCC2)c(=O)c2c1sc1ccccc12 (centres undefined) [2-(2-keto-1-methyl-2-piperidino-ethyl)-4-methyl-benzothiopheno[2,3-d]pyridazin-1-one]",> 50 µM
12,Cc1cccc2[nH]c3c(N4CCN(C(=O)c5ccco5)CC4)ncnc3c12 [SMR000148910],> 50 µM
13,O=C1C(=O)c2ccccc2-c2ccccc21,10.1 µM
14,O=c1[nH]cc(COCc2ccccc2)c(=O)[nH]1,> 50 µM
15,"COc1cc(OC)cc(C(=O)NCCCN2CCOCC2)c1 [3,5-Dimethoxy-N-(3-morpholin-4-yl-propyl)-benzamide]",> 50 µM
16,Cc1ccccc1NS(=O)(=O)c1cc(C(=O)NCc2ccco2)ccc1C [MLS000052108],> 50 µM
17,"C=CCSc1nccc(-c2cc(Cl)sc2Cl)n1 [2-(allylsulfanyl)-4-(2,5-dichloro-3-thienyl)pyrimidine]",> 50 µM
18,"O=C(NC(NC(=S)Nc1ccc(Cl)cc1Cl)C(Cl)(Cl)Cl)c1cccc([N+](=O)[O-])c1 (centres undefined) [3-nitro-N-[2,2,2-trichloro-1-({[(2,4-dichlorophenyl)amino]carbonothioyl}amino)ethyl]benzamide]",> 50 µM
19,"Cc1cccc(-n2c(CCn3nc(C)c([N+](=O)[O-])c3C)n[nH]c2=S)c1 [3-(2-{4-nitro-3,5-dimethyl-1H-pyrazol-1-yl}ethyl)-4-(3-methylphenyl)-5-sulfanyl-4H-1,2,4-triazole]",> 50 µM
20,O=C(Nc1nc2ccccc2s1)c1cc2c(s1)-c1ccccc1OC2 [MLS000522634],> 50 µM
21,"Cc1cc(C)n(-c2nnc3n2N=C(c2ccccc2)CS3)n1 [3-(3,5-dimethyl-1-pyrazolyl)-6-phenyl-7H-[1,2,4]triazolo[3,4-b][1,3,4]thiadiazine]",> 50 µM
22,"Cc1nc2cccc(C)n2c(=O)c1Cl [3-chloranyl-2,6-dimethyl-pyrido[1,2-a]pyrimidin-4-one]",> 50 µM

row,SMILES,IC50
1,"Cn1c(=O)c(NCCO)c2c3c(cccc31)C(=O)c1ccccc1-2 [1-(2-Hydroxy-ethylamino)-3-methyl-3H-naphtho[1,2,3-de]quinoline-2,7-dione]",1.81 µM
2,"COc1ccc2c(c1OC)C(=O)OC2CC(=O)O (centres undefined) [(4,5-dimethoxy-3-oxo-1,3-dihydro-2-benzofuran-1-yl)acetic acid]",> 50 µM
3,COc1ccc2c3c(cccc13)NN=C2C [6-Methoxy-3-methyl-1H-benzo[de]cinnoline],> 50 µM
4,CCOC(=O)c1ccc(NC(=O)c2c(O)[nH]c(=O)[nH]c2=O)cc1,2.28 µM
5,COc1ccccc1C1SCCN1S(=O)(=O)c1cccc(C(F)(F)F)c1 (centres undefined) [2-(2-Methoxy-phenyl)-3-(3-trifluoromethyl-benzenesulfonyl)-thiazolidine],> 50 µM
6,CC(=O)N(N=C1Sc2ccccc2C1=O)c1ccccc1 [N-[(Z)-(3-ketobenzothiophen-2-ylidene)amino]-N-phenyl-acetamide],> 50 µM
7,"O=C(O)C1CCCCC1C(=O)Nc1ccc2c(c1)OCCO2 (centres undefined) [2-(2,3-dihydro-1,4-benzodioxin-6-ylcarbamoyl)cyclohexane-1-carboxylic acid]",> 50 µM
8,CC(=O)N(N=C1Sc2ccccc2C1=O)c1ccccc1C [N-(2-methylphenyl)-N-[(3-oxo-1-benzothiophen-2-ylidene)amino]acetamide],37.3 µM
9,COc1cc(S(=O)(=O)N2CCCCCC2)ccc1-n1cnnn1 [1-(3-Methoxy-4-tetrazol-1-yl-benzenesulfonyl)-azepane],> 50 µM
10,O=C(COc1ccccc1)Nc1ccc(S(=O)(=O)N2CCOCC2)cc1 [MLS000108227],> 50 µM
11,COc1ccc(CC2NCCC3(O)CCCCC23)cc1 (centres undefined) [1-(4-Methoxy-benzyl)-octahydro-isoquinolin-4a-ol],> 50 µM
12,CCC(C)c1ccc(NC(=O)C2CC2)cc1 (centres undefined) [MLS000110184],> 50 µM
13,O=C(CNS(=O)(=O)c1ccc(Br)s1)N1CCCC1 [5-bromanyl-N-(2-oxidanylidene-2-pyrrolidin-1-yl-ethyl)thiophene-2-sulfonamide],> 50 µM
14,"CCN1C(=O)/C(=C/c2nc3ccccc3c(=O)n2-c2ccccc2)c2ccccc21 [2-[(1-ethyl-2-oxo-1,2-dihydro-3H-indol-3-ylidene)methyl]-3-phenyl-4(3H)-quinazolinone]",> 50 µM
15,"COc1cccc(OC)c1C(=O)N1CCN(c2ccccn2)CC1 [(2,6-dimethoxyphenyl)-(4-pyridin-2-ylpiperazin-1-yl)methanone]",> 50 µM
16,"O=C1Nc2ccc([N+](=O)[O-])cc2C1(O)N1CCCCC1 (centres undefined) [3-hydroxy-5-nitro-3-(1-piperidinyl)-1,3-dihydro-2H-indol-2-one]",> 50 µM
17,"CCc1noc(C)c1C(=O)N1CCOCC1 [(3-ethyl-5-methyl-1,2-oxazol-4-yl)-morpholin-4-yl-methanone]",> 50 µM
18,"Cc1ccc(Cl)cc1N1CCN(S(=O)(=O)c2ccc3c(c2)oc(=O)n3C)CC1 [6-[4-(5-chloranyl-2-methyl-phenyl)piperazin-1-yl]sulfonyl-3-methyl-1,3-benzoxazol-2-one]",> 50 µM
19,CC(C)(C)NC(=O)CC(CC(=O)O)c1ccccc1 (centres undefined) [5-(tert-butylamino)-5-keto-3-phenyl-valeric acid],> 50 µM
20,CCn1ncc(CN2CCN(C(=O)Nc3ccccc3C(=O)OC)CC2)c1C [2-[[4-[(1-ethyl-5-methyl-pyrazol-4-yl)methyl]piperazine-1-carbonyl]amino]benzoic acid methyl ester],> 50 µM
21,CCNC(=O)NC(=O)C(C)OC(=O)c1cccnc1SC (centres undefined) [2-(methylthio)-3-pyridinecarboxylic acid [1-(ethylcarbamoylamino)-1-oxopropan-2-yl] ester],> 50 µM
22,CC(=O)N(N=C1Sc2ccccc2C1=O)c1cccc(C)c1 [N-(3-methylphenyl)-N-[(3-oxidanylidene-1-benzothiophen-2-ylidene)amino]ethanamide],32.9 µM
